Structures are written as SMILES.

In the experiment the test system is colitis (colon growth caused by inflammation). In words: DNBS-induced colitis in rats (animal model for inflammatory bowel disease). It is filed as in vivo, male Spregue-Dawley rats. The settings on record: oral once a day for 7 days, rat. As to the method: In one experiment, male Spregue-Dawley rats (150-180 gram; Charles River Lab, Boston, Mass.) were kept in filter-topped cages with free access to food and water, and housed in a positive pressure room with controlled temperature and photoperiod during studies. As an animal model for inflammatory bowel disease (e.g., Crohn's disease), colitis (colon growth caused by inflammation) was induced by intracolonic instillation of 25 mg of a hapten reagent, 2,4-dinitrobenzenesulfonic acid (TCI, Japan), in 0.5 ml of 30% vol/vol ethanol. Each rat was first anaesthetized with […]/ethanol was injected into the colon, 8 cm proximal to the anus, with a PE 50 cannula. 2 ml of air was then gently injected through the cannula to ensure that the solution remained in the colon. The rat was then kept in a vertical position for 30 second and returned to its cage. By using the same procedures, rats in the blank-control group received 0.5 ml of 30% ethanol. See Hogaboam, et al., Eur. J. Pharmacol. (1996) 309:261-269. […] Each daily dose contained 3.125 mg to 25 mg of quercetin aglycon for each kilogram of body weight. The weight of each rat was monitored every 24 hours. […] Before removal of each colon, the presence or absence of adhesions between the colon and other organs were recorded upon opening the abdominal cavity. The colon-to-body weight ratio was then calculated for each animal. […]

As for `O=c1c(O)c(-c2ccc(O)c(O)c2)oc2cc(O)cc(O)c12` [quercetin aglycon], the “inhibition of colon growth (colon-to-body weight ratio)” value by setting is: (3.125 mg/kg quercetin aglycon) “failed to do so”; (25 mg/kg quercetin aglycon) “inhibited colon growth”.

The values above are taken from patent publication US7569239B2, “Antioxidative compositions” (priority 2002, dated 2009).
